# Where two headings read alike, the source gives them in different places.
# What was measured:
# soft tissue sarcoma = settings: clinical trials for treating soft tissue sarcoma; cited from earlier work
# LMS = experiment: Median overall survival in LMS patients by PDGFRβ tumor status; format: in vivo, human; settings: for OS HR: LMS female patients; for Hazard Ratio, overall survival / Hazard Ratio (95% CI), overall survival: Olaratumab + Doxorubicin vs Placebo + Doxorubicin; for OS HR adjusted for ECOG PS: adjusting for ECOG PS
# [1] = system: advanced or metastatic soft tissue sarcoma; settings: STS patients; for HR (95% CI), overall survival: Olaratumab + Doxorubicin vs Placebo + Doxorubicin
# Method: Study Design: Patients with advanced or metastatic soft tissue sarcoma are treated with olaratumab (20 mg/kg loading dose on Days 1 and 8 of a 21-day cycle in Cycle 1, followed by 15 mg/kg on Days 1 and 8 in subsequent 21-day cycle) in combination with doxorubicin (75 mg/m^2 on Day 1) (“investigational cohort”) and compared to patients treated with placebo (on Days 1 and 8) plus doxorubicin (75 mg/m^2 on Day 1) (“control cohort”). Patients are treated for 8 cycles, followed by olaratumab monotherapy or placebo until evidence of progressive disease, unacceptable toxicity or death. […] Patients are assessed for median overall survival (OS).
# Immunohistochemistry Assay to determine PDGFR/3 expression: For immunohistochemistry analysis, tumor tissue from patients is collected, formalin-fixed in 10% neutral buffered formalin, and paraffin-embedded (FFPE). PDGFRβ protein expression on tumor cells is assessed by immunohistochemistry. Briefly, from FFPE tissue blocks containing the patient tumor tissue, a 4-6 micrometer section is obtained and placed on a positively charged glass slide. Anti-PDGFRβ mouse monoclonal antibody 2B3 is used to detect expression of PDGFRβ (clone 2B3, Cell Signaling Technology® catalog number 3175S), diluted in Dako Primary Antibody Diluent with Background Reducing Components (Dako/Agilent catalog number S3022) at 0.25 μm/mL. Immunohistochemistry is performed on a Dako Autostainer Link 48/PT Link Incubator. Deparaffinization with the Link 48/PT Link Incubator is accomplished at 97° C. for 20 minutes. Target retrieval is next accomplished with immersion of the unstained slides into EnVision™ FLEX Target Retrieval Solution High pH (Dako) on the Dako Link48/PT Link Incubator. Following a rinse in RT EnVision™ FLEX Wash Buffer (1×), specific immunohistochemical staining with the 2B3 antibody is accomplished by FLEX Peroxidase Block for 5 minutes, application of the 0.25 ug/mL concentration of anti-human PDGFRβ antibody 2B3 with incubation for 60 minutes, followed by FLEX/HRP application and incubation for 20 minutes, then application of FLEX DAB+ Substrate Chromogen for 10 minutes, and finally FLEX hematoxylin for 5 minutes. Ready-to-use FLEX Mouse Negative Control (Dako/Agilent catalog number IR750) is performed alongside PDGFRβ staining and used as a quality control (negative control) for the assay. Stained slides are then evaluated by trained personnel using a brightfield microscope.
# [2] = LMS patients excluding PDGFRβ positive females
# [3] = LMS patients, PDGFRβ negative tumor status
# [4] = LMS patients, PDGFRβ positive tumor status
# [5] = PDGFRβ negative and PDGFRα positive tumor status
substance,measurement,setting,value
LARTRUVO®: an antibody that specifically binds human PDGFRα,therapeutic endpoints in clinical trials,soft tissue sarcoma,failed to meet certain therapeutic endpoints
"doxorubicin [Placebo + Doxorubicin, reference compound]",Median OS months,LMS; [2],20.9 months
same,Median OS months,LMS; [3],"21.88 (16.72, 35.55) months"
same,Median OS months,"LMS; LMS patients, PDGFRβ negative tumor status, listed as control cohort",21.88 months
same,Median OS months,LMS; [4],"21.39 (15.57, 24.57) months"
same,Median OS months,"LMS; LMS patients, PDGFRβ positive tumor status, listed as control cohort",21.39 months
same,median OS,[1]; PDGFRα negative tumor status,21.9 months
same,median OS,[1]; PDGFRα positive tumor status,19.1 months
same,median OS,[1]; [5],20.6 months
same,Median OS months,[1]; PDGFRβ negative tumor status,20.57 months
same,Median OS months,[1]; PDGFRβ positive tumor status,19.88 months
same,Median OS months,"[1]; PDGFRβ positive tumor status, listed as control cohort",19.9 months
"Olaratumab + Doxorubicin: olaratumab (antibody that binds human PDGFRα) in combination with doxorubicin, followed by olaratumab monotherapy",OS HR,LMS; PDGFRβ negative tumor status,0.55
same,OS HR,LMS; PDGFRβ positive tumor status,1.34
same,Median OS months,LMS; [2],28.5 months
same,"Hazard Ratio, overall survival",LMS; [2],0.60; p = 0.035
same,"Hazard Ratio, overall survival","LMS; LMS patients excluding PDGFRβ positive females, listed as investigational cohort",0.60
same,Median OS months,LMS; [3],29.11 months
same,"Hazard Ratio (95% CI), overall survival","LMS; LMS patients, PDGFRβ negative","0.65 (0.33, 1.25)"
same,"Hazard Ratio (95% CI), overall survival","LMS; LMS patients, PDGFRβ negative, listed as investigational cohort",0.65
same,Median OS months,LMS; [4],20.14 months
same,"Hazard Ratio (95% CI), overall survival","LMS; LMS patients, PDGFRβ positive","1.05 ((0.71, 1.55)"
same,"Hazard Ratio (95% CI), overall survival","LMS; LMS patients, PDGFRβ positive, listed as investigational cohort",1.05
same,OS HR adjusted for ECOG PS,LMS; PDGFRβ negative women with LMS,0.55
same,OS HR adjusted for ECOG PS,LMS; PDGFRβ positive women with LMS,1.34
same,median OS,[1]; PDGFRα negative tumor status,23.6 months
same,median OS,[1]; PDGFRα positive tumor status,17.2 months
same,median OS,[1]; [5],28.5 months
same,Median OS months,[1]; PDGFRβ negative tumor status,28.32 months
same,"HR (95% CI), overall survival",[1]; PDGFRβ negative,0.85 (0.54-1.33)
same,"HR (95% CI), overall survival","[1]; PDGFRβ negative, listed as investigational cohort",0.85
same,Median OS months,[1]; PDGFRβ positive tumor status,18.79 months
same,Median OS months,"[1]; PDGFRβ positive tumor status, listed as investigational cohort",18.8 months
same,"HR (95% CI), overall survival",[1]; PDGFRβ positive,1.10 (0.84-1.44)
